The results in this text go back to PMC7150766 (Viruses, 2020).

Assay [1] concerns LNCs and splenocytes from immunized mice. Briefly: Proliferative response, whole cells from VP1 peptide-immunized mice. In kind it is cell-based, A/J mice.
The test system of assay [2] is splenocytes from CVB4-infected A/J mice. Briefly: Proliferative response of splenocytes from CVB4-infected mice. To be noted: peptide 2 days, then 3[H] thymidine 16 h, p ≤ 0.01 for VP1 721–740, Figure 6a. In kind it is cell-based.

Take “VNTFVHESLADVQA [RNase 43–56, bovine ribonuclease (RNase) 43–56, irrelevant control peptide]”: the “Proliferative response (in words)” value in assay [1] was “the cells did not react to control”; in assay [2] it was “the cells did not respond to control”.
